Consider four molecules from patent US20170327598A1, “SINGLE DOMAIN ANTIBODIES DIRECTED AGAINST INTRACELLULAR ANTIGENS” (SINGH MOLECULAR MEDICINE, LLC, priority 2014, published 2017).

Data set [1] relates to STAT3 reporter, induction by interleukin-6. Briefly: STAT3 reporter GloResponse SIE-luc2P/HEK293 cell assay, IL-6 induction.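 On all read-outs here: IL-6 added at 40 ng/mL (EC80) for roughly one day after pretreatment, luciferase luminescence read with Bio-Glo reagent, untreated +IL6 wells serve as control.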 It is filed as cell-based. The note with it: for effect on IL-6 induction of STAT3 reporter: 24 hours and 48 hours treatment prior to IL-6.
For data set [2], the system named is GloResponse SIE-luc2P/HEK 293 cells. Briefly: BCA protein concentration of reporter cells run in parallel. It is filed as cell-based.
For another data set, the system named is PANC-1 xenograft. Briefly: PANC-1 xenograft, sdAb alone, Gemcitabine alone or combination, Example 19. The note with it: for BODY WEIGHT (g) Mean / TUMOR VOLUMES (mm^3) Mean / % INHIBITION OF CONTROL (tumor growth): SBT-100 5 mg/kg BID, Gemcitabine 20 mg/kg, or both.
The subject of another data set is PANC-1 cells. Description: PANC-1 growth inhibition with or without Gemcitabine. The note with it: for Absorbance: 72 hours.
In data set [3] the test system is rabbit anti-llama biotinylated antibody or his-probe (H-3) biotin labeled antibody. Briefly: ELISA with sdAbs coated, binding of secondary antibodies (Experiments 2 and 3). As to the method: Two assays (Experiment 2 and 3) were performed to assess the binding of the secondary antibody to the sdAbs. A similar ELISA method was utilized except the sdAbs were directly coated onto the assay plate at a concentration of 1 μg/mL. Plates were incubated overnight at 2-8° C. After the incubation, plates were washed (3×) and blocked (3% BSA in PBS) for at least one hour at room temperature.
After removal of the blocking buffer and washing (3×), the secondary antibodies, either rabbit anti-llama biotinylated antibody or his-probe (H-3) biotin labeled antibody at was then added at a 1:5,000 dilution to each well and incubated with shaking for at least one hour at room temperature. Only the rabbit anti-llama biotinylated antibody was used in Experiment 2. Both antibodies were run in parallel in Experiment 3.
After the incubation with secondary antibody, the plates were again washed (3×) and HRP at a 1:50,000 dilution was added to each well. Plates were incubated with shaking for at least one hour at room temperature. One last wash (3×) was performed followed by the addition of TMB substrate and plates were incubated at room temperature. For the anti-llama biotinylated antibody stop solution was added to halt the colorimetric reaction at 10 minutes. The his-probe (H-3) biotin labeled antibody was allowed to incubate for 20 minutes prior to stopping. The absorbance at 450 nm was measured as before.

Data set [4] deals with T1, active human TNF-α full length protein (Homo sapiens, UniProt P01375).
T1 construct: purchased Abcam
Briefly: TNF ELISA, binding of anti-TNF-α sdAbs to coated TNF-α protein. The note with it: for detection in coated versus non-coated wells: 1 μg/mL sdAb, 0.5 μg/mL coating antigen; for binding to the TNF-α protein, detection: Experiment 1, 1 μg/mL sdAb; for OD450 Values: Non-Coated wells, sdAb 1 μg/mL, non-specific binding. The protocol: In this Example, the binding of anti-TNF-α sdAbs to active human TNF-α full length protein was assessed using an enzyme linked immunosorbent assay (ELISA) format. Additionally, the feasibility of utilizing a secondary antibody targeted to the his tag portion of the sdAbs was assessed.
Plates were incubated overnight at 2-8° C. After the incubation, plates were washed (3×) and blocked (3% Bovine Serum Albumin (BSA) in Phosphate Buffered Saline (PBS)) for at least one hour at room temperature.
After removal of the blocking buffer and washing (3×), samples were added to the appropriate wells of the ELISA plates and incubated at room temperature with shaking (150 rpm) for at least one hour. The secondary antibody (rabbit anti-llama biotinylated antibody at either a 1:5,000 or 10,000 dilution) was then added to each well and incubated with shaking for at least one hour at room temperature.
After the incubation with secondary antibody, the plates were again washed (3×) and horseradish peroxidase (HRP) at either a 1:25,000 or 1:50,000 dilution was added to each well. Plates were incubated with shaking for at least one hour at room temperature. A final wash (3×) was performed followed by the addition of TMB (Tetramethylbenzidine) substrate. After a 20 to 25 minute incubation at room temperature, stop solution was added to halt the colorimetric reaction. The absorbance at 450 nm was measured on a VersaMax instrument utilizing SoftMax Pro GxP version 5.4 software from Molecular Devices (Sunnyvale, Calif.).
The final experiment performed was to confirm that the results from the ELISA testing were due to binding to the TNF-α protein and not non-specific binding of the sdAb. For this determination, a comparison was made between wells coated with 0.5 μg/mL of coating antigen and non-coated wells. […] This experiment confirms that the detection seen with the previous experiments was due to the specific binding of the VHH to the coating antigen and not due to non-specific binding.

Where [5] appears, read: 24 Hour Treatment Prior to IL6 Induction, high conc.: VHH13 55.8 μg/mL, VHH14 84.3 μg/mL, BB1608 4.16 μM, VHH69 50.5 μg/mL.
The mark [6] stands for this setting: 24 Hour Treatment Prior to IL6 Induction, low conc.: VHH13, VHH14, VHH69 10 μg/mL, BB1608 2 μM.
The mark [7] stands for this setting: 48 Hour Treatment Prior to IL6 Induction, high conc.: VHH13 55.8 μg/mL, VHH14 84.3 μg/mL, BB1608 4.16 μM, VHH69 50.5 μg/mL.
Setting [8] is: 48 Hour Treatment Prior to IL6 Induction, low conc.: VHH13, VHH14, VHH69 10 μg/mL, BB1608 2 μM.
Setting [9] is: His-probe (H-3), Experiment 3, stored 1:100 dilution of sdAb.
[10] abbreviates: Rabbit anti-Llama Secondary Antibody, Experiment 2, sdAb coated at 1 μg/mL.
The mark [11] stands for this setting: Rabbit anti-Llama Secondary Antibody, Experiment 3, stored 1:100 dilution of sdAb.

“And” between values parts separate entries of the source, which are not always exact repeats. Equal entries are not always repeated. Where only a bound is given, the exact number is not on record here.

T1 sequence (P01375 77-233 limits assumed): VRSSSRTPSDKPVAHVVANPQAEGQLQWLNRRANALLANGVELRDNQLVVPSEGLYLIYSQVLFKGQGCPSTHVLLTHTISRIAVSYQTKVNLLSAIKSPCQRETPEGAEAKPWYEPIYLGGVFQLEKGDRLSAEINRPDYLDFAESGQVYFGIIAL

`CC(=O)c1cc2c(o1)C(=O)c1ccccc1C2=O` [BB1608, napabucasin, reference compound]: the “Average RLU” value in data set [1] (setting [5]) worked out at 33 RLU; in data set [1] (setting [6]) it was 38 RLU; in data set [1] (setting [7]) it was 29 RLU; in data set [1] (setting [8]), 33 RLU. Moreover, the “Average RLU with Media Blank” value in data set [1] (setting [5]) is listed as 8 RLU; in data set [1] (setting [6]), 12 RLU; in data set [1] (setting [7]), −3 RLU; in data set [1] (setting [8]), 0 RLU. In addition, the “Fold-Induction RLU/RLU of-IL6” value in data set [1] (setting [5]) and in data set [1] (setting [6]) was 0 each time. The “Luminescence (RLU), single wells” value is 41 RLU and 28 RLU and 31 RLU in data set [1] (setting [5]); 41 RLU and 33 RLU and 39 RLU in data set [1] (setting [6]); 25 RLU and 31 RLU and 32 RLU in data set [1] (setting [7]); 26 RLU and 42 RLU and 31 RLU in data set [1] (setting [8]). The “Fold-Induction RLU/RLU of−IL6” value in data set [1] (setting [7]) and in data set [1] (setting [8]) was 0 in each case. For the same molecule, in data set [1], the “effect on IL-6 induction of STAT3 reporter” value was “Inhibition of IL-6”. For the same molecule, the Protein concentration in data set [2] (setting [5]) is given as 174; in data set [2] (setting [6]) it was 425; in data set [2] (setting [7]), 165; in data set [2] (setting [8]) it was 324.

With `Nc1ccn([C@@H]2O[C@H](CO)[C@@H](O)C2(F)F)c(=O)n1` [Gemcitabine], in the data set with PANC-1 xenograft (Day 1 (start of treatment), SBT-100 5 mg/kg IP BID × 14, Gemcitabine 20 mg/kg IP QD × 7, or both), the “Mean Tumour Size (mm^3) Day 1” value came to 122.23 ± 23.46 mm^3. The “BODY WEIGHT (g) Mean” value in the data set with PANC-1 xenograft (Day 1) stood at 23.77 g; in the data set with PANC-1 xenograft (Day 5), 23.47 g; in the data set on PANC-1 xenograft (Day 8) it was 23.37 g; in the data set with PANC-1 xenograft (Day 12) it was 23.13 g; in the data set with PANC-1 xenograft (Day 19), 23.97 g; with PANC-1 xenograft (Day 22), 24.55 g. In addition, the “TUMOR VOLUMES (mm^3) Mean” value with PANC-1 xenograft (Day 1) is given as 122.23 mm^3; in the data set with PANC-1 xenograft (Day 5), 165.57 mm^3; in the data set on PANC-1 xenograft (Day 8) it was 183.88 mm^3; in the data set on PANC-1 xenograft (Day 12), 191.6 mm^3; in the data set on PANC-1 xenograft (Day 15) it was 246.48 mm^3; in the data set on PANC-1 xenograft (Day 19) it was 312.74 mm^3. The “TUMOR VOLUMES (mm^3) Mean” value with PANC-1 xenograft (Day 22) worked out at 411.93 mm^3. In addition, the “% INHIBITION OF CONTROL (tumor growth)” value worked out at 19.51% in the data set on PANC-1 xenograft (Day 12), 23.17% in the data set with PANC-1 xenograft (Day 15), 23.26% in the data set on PANC-1 xenograft (Day 19) and 14.93% in the data set with PANC-1 xenograft (Day 22). For the same molecule, the Absorbance is listed as 1.560 with PANC-1 cells (Gemcitabine 0.020 μM in DMSO); 1.240 in the data set with PANC-1 cells (Gemcitabine 0.039 μM in DMSO); 1.050 in the data set on PANC-1 cells (Gemcitabine 0.625 μM in DMSO); 0.631 in the data set with PANC-1 cells (Gemcitabine 5 μM in DMSO); 0.543 in the data set with PANC-1 cells (Gemcitabine 10 μM in DMSO). Also, in the data set on PANC-1 cells (Homo sapiens, PANC-1, read-out: IC50 concentration), the IC50 is 10 µM.

B1: anti-TNF-alpha VHH62: third anti-TNF-alpha single domain antibody, SEQ ID NO:47 (protein)
VHH: QVQLVESGGGPVQAGETLRLSCTASGFTFAEADMGWYRQAPGHECELVSTITTEGITSEASSYYADSVRGRFTISRDNAKNMVYLQMNSLKPEDTAVYYCAPDPYAYSTYSDYCSWAQGTQGTLVTVSS
modifications: Camelid
With B1, the “OD450 Values” in data set [3] (setting [9]) was 0.196; in data set [3] (setting [10]), 1.485; in data set [3] (setting [11]), 2.341; in data set [4], −0.001. Moreover, the “detection in coated versus non-coated wells” value in data set [4] was “not detected in either coated or non-coated wells”. The “binding to the TNF-α protein, detection” value in data set [4] is listed as “little to no detection”. This molecule showed an OD values in data set [4] (Experiment 4, 10-fold serial dilutions starting at 1 μg/mL) of less than 0.2 OD450.

B2: anti-TNF-alpha VHH69: second anti-TNF-alpha single domain antibody, SEQ ID NO:46 (protein)
VHH: EVQLVESGGGSVLAGGSLRLSCVASGFTSRYNYMAWFRQAPGKEREGVATIGTASGSADYYGSVKDRFTISQDNAKNTVYLQMNSLKPEDTAMYYCAARTYGTISLTPSDYRYWGQGTLVTVSS
modifications: Camelid
As for B2, the “Average RLU” value in data set [1] (setting [5]) is listed as 198596 RLU; in data set [1] (setting [6]), 169752 RLU; in data set [1] (setting [7]), 225726 RLU; in data set [1] (setting [8]), 172988 RLU. The “Average RLU with Media Blank” value in data set [1] (setting [5]) is reported as 198571 RLU; in data set [1] (setting [6]) it was 169726 RLU; in data set [1] (setting [7]) it was 225694 RLU; in data set [1] (setting [8]) it was 172955 RLU. Besides, the “Fold-Induction RLU/RLU of-IL6” value in data set [1] (setting [5]) was 434; in data set [1] (setting [6]), 371. The “Luminescence (RLU), single wells” value was 203139 RLU and 194320 RLU and 198330 RLU in data set [1] (setting [5]); 159115 RLU and 184364 RLU and 165776 RLU in data set [1] (setting [6]); 237816 RLU and 220259 RLU and 219104 RLU in data set [1] (setting [7]); 191241 RLU and 171796 RLU and 155927 RLU in data set [1] (setting [8]). In addition, the figures for the “Fold-Induction RLU/RLU of−IL6” value in data set [1] (setting [7]) and in data set [1] (setting [8]) were 452 and 347, respectively. Moreover, the “effect on IL-6 induction of STAT3 reporter” value in data set [1] is “enhancement of the IL-6 induction”. For the same molecule, the Protein concentration worked out at 213 in data set [2] (setting [5]), 237 in data set [2] (setting [6]) and 222 in data set [2] (setting [8]). Further, the “OD450 Values” in data set [3] (setting [9]) is 0.153; in data set [3] (setting [10]) it was 0.499; in data set [3] (setting [11]), 0.443; in data set [4] it was 0.007. Also, the “detection in coated versus non-coated wells” value in data set [4] is given as “detected in coated wells but not in non-coated wells”. The “binding to the TNF-α protein, detection” value in data set [4] is listed as “little to no detection”.
